The source of these data is US7109197B2, “N-phenyl-4-(4-pyridyl)-2-pyrimidineamine derivatives” (Syngenta Crop Protection, Inc., priority 2000, dated 2006).

Experiment [1] relates to Puccinia graminis. Format: in vivo.
Experiment [2] deals with Phytophthora infestans. It is filed as in vivo.
The mark [3] stands for this setting: Puccinia graminis on wheat cv. Arina, 0.02% active substance spray (residual) or 0.002% soil (systemic), variant not stated.

Read-outs that look alike come from different tables or passages of the source.

On to `OCCCNc1cc(-c2ccnc(Nc3cccc(Cl)c3)n2)ccn1` [Compound 46], for which, in experiment [1] (setting [3]), the B1 activity result is “+ (the activity observed in the corresponding test system is 70% or more)”. In the case of `CC(C)Nc1cc(-c2ccnc(Nc3cccc(Cl)c3)n2)ccn1` [Compound 68], in experiment [1] (in vivo), the B1 activity result is given as “+ (key: +: the activity observed in the corresponding test system is 70% or more)”. With `CCC(CO)Nc1cc(-c2ccnc(Nc3cccc(Cl)c3)n2)ccn1` (centres unmarked) [Compound 31], the B1 activity result in experiment [1] (setting [3]) is given as “+ (the activity observed in the corresponding test system is 70% or more)”. Also, in experiment [2] (Phytophthora infestans on tomato cv. Roter Gnom, 0.02% active substance spray (residual) or 0.002% soil (systemic), variant not stated), the B2 activity result is recorded as “+ (the activity observed in the corresponding test system is 70% or more)”. In the case of `CC(CO)Nc1cc(-c2ccnc(Nc3cccc(Cl)c3)n2)ccn1` (centres unmarked) [Compound 39], the B1 activity result in experiment [1] (setting [3]) is given as “+ (the activity observed in the corresponding test system is 70% or more)”. Consider `Clc1cccc(Nc2nccc(-c3ccnc(NC4CCOC4)c3)n2)c1` (centres unmarked) [Compound 2], for which, in experiment [1] (setting [3]), the B1 activity entry is “+ (the activity observed in the corresponding test system is 70% or more)”. On to `Clc1cccc(Nc2nccc(-c3ccnc(NCCCOc4ncccn4)c3)n2)c1` [Compound 94], for which, in experiment [1] (setting [3]), the B1 activity result is “+ (the activity observed in the corresponding test system is 70% or more)”. Consider `CCNc1cc(-c2ccnc(Nc3cccc(Cl)c3)n2)ccn1` [Compound 60], for which the B1 activity entry in experiment [1] (in vivo) was “+ (key: +: the activity observed in the corresponding test system is 70% or more)”. Turning to `Clc1cccc(Nc2nccc(-c3ccnc(NCC4CCCO4)c3)n2)c1` (centres unmarked) [Compound 75], the B1 activity entry in experiment [1] (setting [3]) was “+ (the activity observed in the corresponding test system is 70% or more)”. On to `CNc1cc(-c2ccnc(Nc3cccc(Cl)c3)n2)ccn1` [Compound 64], for which, in experiment [2] (in vivo), the B2 activity result was “+ (key: +: the activity observed in the corresponding test system is 70% or more)”. Turning to `Nc1cc(-c2ccnc(Nc3cccc(Cl)c3)n2)ccn1` [Compound 58], in experiment [1] (in vivo), the B1 activity entry is reported as “+ (key: +: the activity observed in the corresponding test system is 70% or more)”.
